Results taken from patent US10329542B2, “HBV RNAse H purification and enzyme inhibitors” (Saint Louis University, priority 2012, dated 2019).
Entries after “also recorded” stand apart in the source; their conditions may differ. Read-outs that look alike come from different tables or passages of the source.

Tests used:
[1] = target: T1, HBV genotype D RNAseH (HRHPL) (Hepatitis B virus genotype D subtype ayw, UniProt P03156, INS679M); test: Oligonucleotide-directed RNAseH cleavage assay, HBV genotype D; type: biochemical; settings: for Residual activity at 10 uM, Genotype D: ± standard deviation, 3 to 7 replicates; for Activity vs. HBV Biochemical vs. gtD: class by concentration giving inhibition (10, 20, 60 μM); for Residual activity at 10 uM, Genotype D / Inhibition of HBV genotype D RNAseH: 10 μM; for remaining activity at 10 µM: read-out: Residual activity at 10 uM, Genotype D; for IC50: read-out: IC50 against HBV genotype D RNAseH
T1 construct: HRHPL contains HBV genotype D (Genbank V01460) polymerase residues 684-845; made in house; host or cells: E. coli BL21 codon+

human RNAseH1 = target: T2, human RNAseH1 (Homo sapiens, UniProt O60930); test: Oligonucleotide-directed RNAseH assay, recombinant human RNAseH1; type: biochemical; settings: for Activity vs. human RNAseH1: class by concentration giving inhibition (10, 20, 60 μM); for Inhibition of human RNAseH1: 10 μM, compared directly with HRHPL
T2 construct: hexahistidine (N); made in house; host or cells: E. coli BL21 codon+
T2 sequence (O60930 1-286): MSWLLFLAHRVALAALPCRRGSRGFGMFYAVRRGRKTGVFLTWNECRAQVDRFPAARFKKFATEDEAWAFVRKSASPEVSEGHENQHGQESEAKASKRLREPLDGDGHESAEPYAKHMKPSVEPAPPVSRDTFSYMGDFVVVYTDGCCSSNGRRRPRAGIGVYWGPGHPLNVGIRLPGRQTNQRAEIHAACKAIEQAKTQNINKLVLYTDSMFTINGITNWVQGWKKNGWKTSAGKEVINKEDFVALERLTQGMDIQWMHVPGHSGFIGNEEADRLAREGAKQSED
Outline: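 His-tagged human RNAseH1, expressed in E. coli and titrated to an activity matching the HBV enzyme, was incubated with internally 32P-labelled RNA plus a complementary DNA oligonucleotide. Reactions ran for 90 min at 42 °C in 65 mM Tris pH 8.0, 190 mM NaCl and 5 mM MgCl2, with 1% DMSO. Cleavage was measured by SDS-PAGE autoradiography.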

T1 sequence (P03156 680-832, added parts left off, stated change not applied): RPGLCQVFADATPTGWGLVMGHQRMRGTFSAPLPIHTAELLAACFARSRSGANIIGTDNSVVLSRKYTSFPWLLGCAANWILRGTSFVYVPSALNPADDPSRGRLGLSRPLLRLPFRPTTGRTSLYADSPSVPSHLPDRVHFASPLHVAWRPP

Row | SMILES | Residual activity at 10 uM, Genotype D [1] [Percent DMSO control] | Activity vs. HBV Biochemical vs. gtD [1] | Activity vs. human RNAseH1 (human RNAseH1) | Inhibition of human RNAseH1 (human RNAseH1) | also measured
1 | COc1ccc2ccccc2c1C=NNC(=O)c1cc(O)c(O)c(O)c1 [Compound 14] | 46 ± 20 | − (− no inhibition at 60 μM) | – | – | –
2 | Cc1cc(=O)oc2cc(O)c(O)cc12 [Compound 34] | 30 ± 15 | ++ (++ inhibition at 20 μM) | + (+ inhibition at 60 μM) | – | –
3 | COc1cc2c(cc1Cc1cccc(Cl)c1F)c(=O)c(C(=O)O)cn2[C@H](CO)C(C)C [Compound 10, Elvitegravir, reference compound] | – | ++ (++ inhibition at 20 μM) | − (− no inhibition at 60 μM) | had no effect on RNAseH1 | Inhibition of HBV genotype D RNAseH [1]: inhibited the HBV RNAseH; remaining activity at 10 µM [1]: 30 ± 8%
4 | Cc1nnc(C(=O)NC(C)(C)c2nc(C(=O)NCc3ccc(F)cc3)c(O)c(=O)n2C)o1 [Compound 11, Raltegravir, reference compound] | – | ++ (++ inhibition at 20 μM) | − (− no inhibition at 60 μM) | had no effect on RNAseH1 | Inhibition of HBV genotype D RNAseH [1]: inhibited the HBV RNAseH; remaining activity at 10 µM [1]: 29 ± 18%
5 | CCOc1ccc(-c2c3cc(O)c(=O)cc-3oc3cc(O)c(O)cc23)cc1 [Compound 30] | 23 ± 6 | +++ (+++ inhibition at 10 μM) | +++ (+++ inhibition at 10 μM) | – | –
6 | CC(C)c1ccc(O)c(=O)c(O)c1 [Compound 46, beta-thujaplicinol] | – | +++ (+++ inhibition at 10 μM) | − (− no inhibition at 60 μM) | – | Difference between IC50 against HIV-1 RNAseH and HBV RNAseH [1]: ~10 fold; IC50 ([1]; listed as β-thujaplicinol): 6 µM; IC50 ([1]; listed as βTJ): 5.9 ± 0.7 µM; Effect on human RNAseH1 (human RNAseH1; 0, 5, or 20 μM): had little effect on the human RNAseH1; Effect on human RNAseH1 activity (human RNAseH1; 0.02 to 100 μM, listed as βTJ): had no effect on RNAseH1 activity; also recorded: failed to inhibit recombinant human RNAseH1
7 | NCc1ccc(-c2ccc(Cc3cc(=O)n(O)c4ncccc34)cc2)cc1 [Compound 12, napthyridinone] | 28 ± 12 | +++ (+++ inhibition at 10 μM) | – | inhibited it weakly | IC50 [1]: 2.5 µM
8 | [N-]=[N+]=NCc1cccc(C(=O)CC(=O)C(=O)O)c1 [Compound 40] | 21 ± 16 | +++ (+++ inhibition at 10 μM) | – | – | –
9 | Cc1c2cc(O)c(=O)cc-2oc2cc(O)c(O)cc12 [Compound 8] | 33 ± 17 | ++ (++ inhibition at 20 μM) | +++ (+++ inhibition at 10 μM) | inhibited RNAseH1 well | Inhibition ([1]; below 5 μM): ineffective; Inhibition ([1]; between 10 and 30 μM): 40-85%
